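These data come from cells grown in 96-well plates and exposed to compound for 48 hours at five concentrations. GI50 marks 50% less growth.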 Calls of active or inactive are those of the source. Rule as the data show it: active = GI50 up to about 1.1 µM and inactive = higher.
Columns and labels:
Assay in all cases: NCI tumour cell line growth inhibition, 48 h
786-0 = tested on: 786-0
A498 = tested on: A498
A549 = tested on: A549
ACHN = tested on: ACHN
CAKI-1 = tested on: CAKI-1
CCRF-CEM = tested on: CCRF-CEM
COLO 205 = tested on: COLO 205
DLD-1 = tested on: DLD-1
DMS-273 = tested on: DMS-273
EKVX = tested on: EKVX
HCC 2998 = tested on: HCC 2998
HCT-15 = tested on: HCT-15
HOP-62 = tested on: HOP-62
HOP-92 = tested on: HOP-92
HT-29 = tested on: HT-29
IGROV-1 = tested on: IGROV-1
K562 = tested on: K562
KM-20L2 = tested on: KM-20L2
KM12 = tested on: KM12
LOX IMVI = tested on: LOX IMVI
LXFL 529 = tested on: LXFL 529
M14 = tested on: M14
M19-MEL = tested on: M19-MEL
MOLT-4 = tested on: MOLT-4
Malme-3M = tested on: Malme-3M
NCI-H23 = tested on: NCI-H23
NCI-H460 = tested on: NCI-H460
NCI-H522 = tested on: NCI-H522
OVCAR-3 = tested on: OVCAR-3
OVCAR-4 = tested on: OVCAR-4
OVCAR-5 = tested on: OVCAR-5
OVCAR-8 = tested on: OVCAR-8
RPMI-8226 = tested on: RPMI-8226
RXF 393 = tested on: RXF 393
SF-268 = tested on: SF-268
SF-295 = tested on: SF-295
SF-539 = tested on: SF-539
SK-MEL-28 = tested on: SK-MEL-28
SK-MEL-2 = tested on: SK-MEL-2
SK-MEL-5 = tested on: SK-MEL-5
SK-OV-3 = tested on: SK-OV-3
SNB-19 = tested on: SNB-19
SNB-75 = tested on: SNB-75
SNB-78 = tested on: SNB-78
SR = tested on: SR
SW-620 = tested on: SW-620
TK-10 = tested on: TK-10
U-251 = tested on: U-251
UACC-257 = tested on: UACC-257
UACC-62 = tested on: UACC-62
UO-31 = tested on: UO-31
XF498 = tested on: XF498
DMS-114 = tested on: DMS-114
HCT-116 = tested on: HCT-116
HL-60 = tested on: HL-60
HOP-18 = tested on: HOP-18
NCI-H226 = tested on: NCI-H226
SN12C = tested on: SN12C

For `CC1=C(O)C(=O)C2C(=O)C1C(C)C2c1ccc(C)cc1` (stereo not given), the GI50 (786-0) was > 100 µM (inactive), the GI50 (A498) was > 100 µM (inactive) and the GI50 (A549) was > 100 µM (inactive). The GI50 (ACHN) was > 100 µM (inactive), the GI50 (CAKI-1) was > 100 µM (inactive) and the GI50 (CCRF-CEM) was > 100 µM (inactive). The GI50 (COLO 205) was > 100 µM (inactive), the GI50 (DLD-1) was > 100 µM (inactive) and the GI50 (DMS-273) was > 100 µM (inactive). For the same compound, the GI50 (EKVX) was > 100 µM (inactive), the GI50 (HCC 2998) was > 100 µM (inactive) and the GI50 (HCT-15) was over 100 µM. For the same compound, the GI50 (HOP-62) was > 100 µM (inactive), the GI50 (HOP-92) was > 100 µM (inactive) and the GI50 (HT-29) was > 100 µM (inactive). The GI50 (IGROV-1) was > 100 µM (inactive), the GI50 (K562) was > 100 µM (inactive) and the GI50 (KM-20L2) was 3.06 µM (inactive). The GI50 (KM12) was > 100 µM (inactive), the GI50 (LOX IMVI) was > 100 µM (inactive) and the GI50 (LXFL 529) was > 100 µM (inactive). The GI50 (M14) was > 100 µM (inactive), the GI50 (M19-MEL) was > 100 µM (inactive) and the GI50 (MOLT-4) was > 100 µM (inactive). The GI50 (Malme-3M) was > 100 µM (inactive), the GI50 (NCI-H23) was > 100 µM (inactive) and the GI50 (NCI-H460) was > 100 µM (inactive). The GI50 (NCI-H522) was > 100 µM (inactive), the GI50 (OVCAR-3) was > 100 µM (inactive) and the GI50 (OVCAR-4) was > 100 µM (inactive). For the same compound, the GI50 (OVCAR-5) was > 100 µM (inactive), the GI50 (OVCAR-8) was > 100 µM (inactive) and the GI50 (RPMI-8226) was > 100 µM (inactive). For the same compound, the GI50 (RXF 393) was > 100 µM (inactive), the GI50 (SF-268) was > 100 µM (inactive) and the GI50 (SF-295) was > 100 µM (inactive). The GI50 (SF-539) was > 100 µM (inactive), the GI50 (SK-MEL-28) was > 100 µM (inactive) and the GI50 (SK-MEL-2) was > 100 µM (inactive). For the same compound, the GI50 (SK-MEL-5) was > 100 µM (inactive), the GI50 (SK-OV-3) was > 100 µM (inactive) and the GI50 (SNB-19) was > 100 µM (inactive). For the same compound, the GI50 (SNB-75) was 98.9 µM (inactive), the GI50 (SNB-78) was > 100 µM (inactive) and the GI50 (SR) was > 100 µM (inactive). For the same compound, the GI50 (SW-620) was > 100 µM (inactive), the GI50 (TK-10) was > 100 µM (inactive) and the GI50 (U-251) was > 100 µM (inactive). For the same compound, the GI50 (UACC-257) was > 100 µM (inactive), the GI50 (UACC-62) was > 100 µM (inactive) and the GI50 (UO-31) was > 100 µM (inactive). For the same compound, the GI50 (XF498) was > 100 µM (inactive).

In the case of `CC(=O)NC(CCCN(Cc1ccccc1)C(=O)NCCCl)C(=O)NCc1ccccc1` (stereo not given), the GI50 (786-0) is reported as > 100 µM (inactive), the GI50 (A498) is reported as > 100 µM (inactive) and the GI50 (A549) is reported as > 100 µM (inactive). The GI50 (ACHN) was > 100 µM (inactive), the GI50 (CAKI-1) was > 100 µM (inactive) and the GI50 (CCRF-CEM) was > 100 µM (inactive). The GI50 (COLO 205) was > 100 µM (inactive), the GI50 (DLD-1) was > 100 µM (inactive) and the GI50 (DMS-114) was > 100 µM (inactive). For the same compound, the GI50 (DMS-273) was > 100 µM (inactive), the GI50 (EKVX) was > 100 µM (inactive) and the GI50 (HCC 2998) was > 100 µM (inactive). For the same compound, the GI50 (HCT-116) was > 100 µM (inactive), the GI50 (HCT-15) was over 100 µM and the GI50 (HL-60) was > 100 µM (inactive). For the same compound, the GI50 (HOP-18) was > 100 µM (inactive), the GI50 (HOP-62) was > 100 µM (inactive) and the GI50 (HOP-92) was > 79.4 µM (inactive). For the same compound, the GI50 (HT-29) was > 100 µM (inactive), the GI50 (IGROV-1) was > 100 µM (inactive) and the GI50 (K562) was > 100 µM (inactive). For the same compound, the GI50 (KM-20L2) was > 100 µM (inactive), the GI50 (KM12) was > 100 µM (inactive) and the GI50 (LOX IMVI) was > 100 µM (inactive). For the same compound, the GI50 (LXFL 529) was > 100 µM (inactive), the GI50 (M14) was > 100 µM (inactive) and the GI50 (M19-MEL) was > 100 µM (inactive). For the same compound, the GI50 (MOLT-4) was > 100 µM (inactive), the GI50 (Malme-3M) was > 100 µM (inactive) and the GI50 (NCI-H226) was > 100 µM (inactive). The GI50 (NCI-H23) was > 100 µM (inactive), the GI50 (NCI-H460) was > 100 µM (inactive) and the GI50 (NCI-H522) was > 100 µM (inactive). For the same compound, the GI50 (OVCAR-3) was > 100 µM (inactive), the GI50 (OVCAR-4) was > 100 µM (inactive) and the GI50 (OVCAR-5) was > 100 µM (inactive). For the same compound, the GI50 (OVCAR-8) was > 100 µM (inactive), the GI50 (RPMI-8226) was > 100 µM (inactive) and the GI50 (RXF 393) was > 100 µM (inactive). For the same compound, the GI50 (SF-268) was > 100 µM (inactive), the GI50 (SF-295) was > 100 µM (inactive) and the GI50 (SF-539) was > 100 µM (inactive). The GI50 (SK-MEL-28) was > 100 µM (inactive), the GI50 (SK-MEL-2) was > 100 µM (inactive) and the GI50 (SK-MEL-5) was > 100 µM (inactive). For the same compound, the GI50 (SK-OV-3) was > 100 µM (inactive), the GI50 (SN12C) was > 100 µM (inactive) and the GI50 (SNB-19) was > 100 µM (inactive). For the same compound, the GI50 (SNB-75) was > 69.5 µM (inactive), the GI50 (SNB-78) was > 100 µM (inactive) and the GI50 (SR) was > 100 µM (inactive). For the same compound, the GI50 (SW-620) was > 100 µM (inactive), the GI50 (TK-10) was > 100 µM (inactive) and the GI50 (U-251) was > 100 µM (inactive). For the same compound, the GI50 (UACC-257) was > 100 µM (inactive), the GI50 (UACC-62) was > 100 µM (inactive) and the GI50 (UO-31) was > 100 µM (inactive).

`CCC1=CC2CN3Cn4c(c(COCc5c6n(c7ccccc57)CN5CC7C=C(CC)C5C6(C(=O)OC)C7)c5ccccc54)C(C(=O)OC)(C2)C13` was tested, and the GI50 (786-0) was > 100 µM (inactive), the GI50 (A498) was > 100 µM (inactive) and the GI50 (A549) was > 100 µM (inactive). For the same compound, the GI50 (ACHN) was 68.4 µM (inactive), the GI50 (CAKI-1) was > 100 µM (inactive) and the GI50 (CCRF-CEM) was > 100 µM (inactive). For the same compound, the GI50 (COLO 205) was > 100 µM (inactive), the GI50 (DLD-1) was > 100 µM (inactive) and the GI50 (DMS-114) was > 100 µM (inactive). For the same compound, the GI50 (DMS-273) was > 100 µM (inactive), the GI50 (EKVX) was > 100 µM (inactive) and the GI50 (HCT-116) was > 100 µM (inactive). For the same compound, the GI50 (HCT-15) was over 100 µM, the GI50 (HL-60) was > 100 µM (inactive) and the GI50 (HOP-62) was > 100 µM (inactive). The GI50 (HT-29) was > 100 µM (inactive), the GI50 (IGROV-1) was > 100 µM (inactive) and the GI50 (K562) was > 100 µM (inactive). For the same compound, the GI50 (KM-20L2) was > 100 µM (inactive), the GI50 (KM12) was > 100 µM (inactive) and the GI50 (LOX IMVI) was > 100 µM (inactive). For the same compound, the GI50 (LXFL 529) was > 100 µM (inactive), the GI50 (M14) was > 100 µM (inactive) and the GI50 (M19-MEL) was 47.2 µM (inactive). For the same compound, the GI50 (MOLT-4) was > 100 µM (inactive), the GI50 (Malme-3M) was > 100 µM (inactive) and the GI50 (NCI-H226) was > 100 µM (inactive). For the same compound, the GI50 (NCI-H23) was > 100 µM (inactive), the GI50 (NCI-H460) was > 100 µM (inactive) and the GI50 (NCI-H522) was > 100 µM (inactive). For the same compound, the GI50 (OVCAR-3) was > 100 µM (inactive), the GI50 (OVCAR-4) was > 100 µM (inactive) and the GI50 (OVCAR-8) was > 100 µM (inactive). For the same compound, the GI50 (RPMI-8226) was > 100 µM (inactive), the GI50 (RXF 393) was > 100 µM (inactive) and the GI50 (SF-268) was 66.8 µM (inactive). The GI50 (SF-295) was > 100 µM (inactive), the GI50 (SK-MEL-28) was > 100 µM (inactive) and the GI50 (SK-MEL-2) was > 100 µM (inactive). The GI50 (SK-MEL-5) was > 100 µM (inactive), the GI50 (SK-OV-3) was 92.5 µM (inactive) and the GI50 (SN12C) was > 100 µM (inactive). For the same compound, the GI50 (SNB-19) was > 100 µM (inactive), the GI50 (SR) was > 100 µM (inactive) and the GI50 (SW-620) was > 100 µM (inactive). For the same compound, the GI50 (TK-10) was > 100 µM (inactive), the GI50 (U-251) was > 100 µM (inactive) and the GI50 (UACC-257) was > 100 µM (inactive). For the same compound, the GI50 (UACC-62) was > 100 µM (inactive), the GI50 (UO-31) was > 100 µM (inactive) and the GI50 (XF498) was > 100 µM (inactive).
